Experimental data from ChEMBL document CHEMBL1201862, “PubChem BioAssay data set” (2004).
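All cell lines were grown in 96-well plates and treated with compound for 48 hours. The concentration for 50% growth inhibition is given as GI50.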 Active and inactive are the calls of the source. No stated cut-off is given here; in the data, active = GI50 up to about 1.1 µM and inactive = higher.

Tests used:
Test in all cases: NCI-60 cell line screen, 48 h
HOP-18 = test system: HOP-18
DMS-114 = test system: DMS-114
RXF 631 = test system: RXF 631
XF498 = test system: XF498
DMS-273 = test system: DMS-273
DLD-1 = test system: DLD-1
LXFL 529 = test system: LXFL 529
T47D = test system: T47D
NCI/ADR-RES = test system: NCI/ADR-RES

Measured: GI50

CC#C[C@@]1(O)CCCC[C@@H]1O
inactive: HOP-18 > 100 µM | DMS-114 > 100 µM | RXF 631 > 100 µM | XF498 > 100 µM | DMS-273 > 100 µM

C[C@@H]1O[C@]2(O)[C@@H]3CCCN3S(=O)(=O)CCN2C1=O
inactive: DLD-1 > 100 µM | HOP-18 > 100 µM | LXFL 529 > 100 µM | RXF 631 > 100 µM | XF498 8.41 µM

O=S(=O)(N/N=C/c1c(Cl)cccc1Cl)c1ccccc1
inactive: DLD-1 > 100 µM | HOP-18 > 100 µM | LXFL 529 > 100 µM | DMS-114 > 100 µM | RXF 631 > 100 µM | XF498 68.4 µM | DMS-273 > 100 µM

COC(=O)C(=O)C(C(=O)OC)C(=O)C(=O)Nc1cc(Cl)c(Cl)cc1Cl (stereo unspecified)
inactive: DLD-1 76.4 µM | HOP-18 > 100 µM | LXFL 529 > 100 µM | DMS-114 14.6 µM | RXF 631 > 100 µM | XF498 > 100 µM | DMS-273 44.7 µM

CC1(C)OCC[C@@H]1[Si](C)(C)C
inactive: HOP-18 23.1 µM | LXFL 529 > 100 µM | DMS-114 49.2 µM | RXF 631 > 100 µM | XF498 32.8 µM | DMS-273 78.3 µM

CCOC(=O)C1C(=O)CN2CCc3c([nH]c4ccccc34)C12C(=O)OCC (stereo unspecified)
inactive: DLD-1 > 100 µM | HOP-18 72.8 µM | LXFL 529 > 100 µM | DMS-114 > 100 µM | RXF 631 > 100 µM | XF498 > 100 µM | DMS-273 > 100 µM

CN(/N=C/c1cccc2cccnc12)c1ccc([N+](=O)[O-])cc1[N+](=O)[O-]
inactive: DLD-1 44.7 µM | HOP-18 > 100 µM | LXFL 529 > 100 µM | DMS-114 20.2 µM | RXF 631 36.1 µM | XF498 6.01 µM | DMS-273 34.4 µM | T47D 23.1 µM | NCI/ADR-RES 39.8 µM
